Here are results for 45 compounds from the Biogen ADME set (Fang et al. 2023).

The conditions of this series: for aqueous solubility: pH 6.8.

Converted amounts (≈) assume the structure as drawn.

Consider `Cc1nc(C(C)C)sc1C(=O)Nc1nc(C(C)(C)C)cs1`, for which the MDR1-MDCK efflux ratio came to 0.306; the intrinsic clearance, human liver microsomes was determined as 27.8 mL/min/kg; the intrinsic clearance, rat liver microsomes was determined as 398 mL/min/kg; the aqueous solubility is 11.8 µg/mL (≈ 36.4 µM).

For `C[C@H]1CN(C2COC2)CCN1c1ccc(Nc2cc(-c3ccnc(N4CCn5c(cc6c5CC(C)(C)C6)C4=O)c3CO)cn(C)c2=O)nc1`, the MDR1-MDCK efflux ratio was determined as 23.1; the fraction unbound, human plasma was 0.162; the intrinsic clearance, human liver microsomes was 14.8 mL/min/kg; the intrinsic clearance, rat liver microsomes is no more than 10.7 mL/min/kg. This compound came in with an aqueous solubility of 46 µg/mL (≈ 69.3 µM).

For the compound `CCOc1ccc2[nH]c(C(=O)N3CC[C@@](O)(CC(C)C)[C@@H](Oc4ccc(F)cc4)C3)c(C)c2c1`, the MDR1-MDCK efflux ratio was 6.74; the intrinsic clearance, human liver microsomes came to 109 mL/min/kg; the intrinsic clearance, rat liver microsomes is 943 mL/min/kg.

On to `Cc1nccc(N(C)Cc2ccc(N)nc2)n1`, for which the MDR1-MDCK efflux ratio is 4.39; the intrinsic clearance, human liver microsomes was no more than 4.74 mL/min/kg; the intrinsic clearance, rat liver microsomes was no more than 10.7 mL/min/kg.

As to `Cc1cc(C)c(NC(=O)c2ccnc(OC3CCC3)c2)c(C)n1`, the MDR1-MDCK efflux ratio came to 1.43; the intrinsic clearance, human liver microsomes is no more than 4.74 mL/min/kg; the intrinsic clearance, rat liver microsomes is 54.3 mL/min/kg; the aqueous solubility came out at 36.1 µg/mL (≈ 116 µM).

For the compound `CC(C)c1nccn1-c1cccc([C@@H]2CCCN2C(=O)CCc2ccccc2)n1`, the MDR1-MDCK efflux ratio amounted to 10.2; the intrinsic clearance, human liver microsomes was determined as 557 mL/min/kg; the intrinsic clearance, rat liver microsomes is 1060 mL/min/kg; the aqueous solubility is 51 µg/mL (≈ 131 µM).

As to `Cc1csc2nc3n(c(=O)c12)CCNCC3`, the MDR1-MDCK efflux ratio was 0.686; the intrinsic clearance, human liver microsomes is 7.83 mL/min/kg; the intrinsic clearance, rat liver microsomes was found to be 228 mL/min/kg.

As to `CC(=O)c1c(C)n(S(=O)(=O)c2ccc(C)cc2)c2ccc(NS(=O)(=O)c3ccc(C)cc3)cc12`, the aqueous solubility turned out to be 0.53 µg/mL (≈ 1.07 µM).

Consider `COC(=O)c1ccc(NS(=O)(=O)c2ccc3c(c2)n(C)c(=O)n3C)cc1`, for which the MDR1-MDCK efflux ratio came out at 20.5 and the aqueous solubility is 15.6 µg/mL (≈ 41.6 µM).

`O=C(NCc1cccc2c1OCCCO2)c1cscn1` gave an intrinsic clearance, human liver microsomes of 7.67 mL/min/kg and an intrinsic clearance, rat liver microsomes of 82.9 mL/min/kg.

On to `Cn1cc(CCNC(=O)N2CCCc3c(F)cccc32)cn1`, for which the MDR1-MDCK efflux ratio worked out at 1.71; the intrinsic clearance, human liver microsomes turned out to be 25.2 mL/min/kg; the intrinsic clearance, rat liver microsomes worked out at 230 mL/min/kg; the aqueous solubility worked out at 42.5 µg/mL (≈ 141 µM).

Take `Cc1n[nH]c(C)c1CCC(=O)N1CCOCC1`: the MDR1-MDCK efflux ratio came to 13.5; the intrinsic clearance, human liver microsomes was no more than 4.74 mL/min/kg; the intrinsic clearance, rat liver microsomes is no more than 10.7 mL/min/kg; the aqueous solubility worked out at 25.6 µg/mL (≈ 108 µM).

Consider `CCn1c(=O)n(CC)c2cc(N)ccc21`, for which the MDR1-MDCK efflux ratio came to 0.814; the intrinsic clearance, human liver microsomes is no more than 4.74 mL/min/kg; the intrinsic clearance, rat liver microsomes came to 20 mL/min/kg; the aqueous solubility was 37.5 µg/mL (≈ 183 µM).

As to `CC(C)(C)c1nccc(NCc2ccncc2)n1`, the MDR1-MDCK efflux ratio was found to be 0.7; the intrinsic clearance, human liver microsomes came to 14.1 mL/min/kg; the intrinsic clearance, rat liver microsomes stood at 748 mL/min/kg; the aqueous solubility was 30.4 µg/mL (≈ 125 µM).

For the compound `O=C(c1ccc(O)cc1)N1CCN(c2ncnc3c2CCC3)CC1`, the MDR1-MDCK efflux ratio is 43.2; the intrinsic clearance, human liver microsomes stood at 12.1 mL/min/kg; the intrinsic clearance, rat liver microsomes is 178 mL/min/kg.

Consider `COc1cccc(C(=O)Nc2nccs2)c1`, for which the MDR1-MDCK efflux ratio stood at 0.562; the intrinsic clearance, human liver microsomes turned out to be 109 mL/min/kg; the intrinsic clearance, rat liver microsomes worked out at 605 mL/min/kg.

For the compound `O=c1[nH]nc(CCCN2CCOCC2)n1-c1cccc(Cl)c1`, the MDR1-MDCK efflux ratio was determined as 25.6; the intrinsic clearance, human liver microsomes is no more than 4.74 mL/min/kg; the intrinsic clearance, rat liver microsomes amounted to 28.1 mL/min/kg; the aqueous solubility worked out at 40.4 µg/mL (≈ 125 µM).

As to `COc1cc(CN2C[C@H]3CCc4c(nc(C)[nH]c4=O)[C@H]3C2)cc(OC)c1OC`, the MDR1-MDCK efflux ratio is 47.5; the intrinsic clearance, human liver microsomes was no more than 4.74 mL/min/kg; the intrinsic clearance, rat liver microsomes was no more than 10.7 mL/min/kg.

As for `O=C(CCn1nnc2ccccc2c1=O)Nc1ccncc1`, the MDR1-MDCK efflux ratio worked out at 4.06; the intrinsic clearance, human liver microsomes was 9.23 mL/min/kg; the intrinsic clearance, rat liver microsomes was 84.8 mL/min/kg; the aqueous solubility was determined as 21.4 µg/mL (≈ 72.3 µM).

`CCOc1cc(CN2CCc3c(N)nc(N4CCCC4)nc3C2)ccc1OC`: the MDR1-MDCK efflux ratio turned out to be 16.6; the intrinsic clearance, human liver microsomes was 26.6 mL/min/kg; the intrinsic clearance, rat liver microsomes was found to be 280 mL/min/kg.

`Cc1ccc(CCNC(=O)N2CC(C)(C)OC(C)(C)C2)cn1`: the MDR1-MDCK efflux ratio worked out at 22.9; the intrinsic clearance, human liver microsomes is 6.58 mL/min/kg; the intrinsic clearance, rat liver microsomes worked out at 76.4 mL/min/kg; the aqueous solubility worked out at 41.1 µg/mL (≈ 135 µM).

`Cc1cc(-c2nccs2)nc(CC2CCNCC2)n1`: the MDR1-MDCK efflux ratio was 20.1; the intrinsic clearance, human liver microsomes was no more than 4.74 mL/min/kg; the intrinsic clearance, rat liver microsomes was 38.8 mL/min/kg; the aqueous solubility worked out at 36.5 µg/mL (≈ 133 µM).

For the compound `CCOc1ccc2c(c1)cc(CN1CCSCC1)c1nn(C)c(=O)n12`, the intrinsic clearance, human liver microsomes worked out at 88.1 mL/min/kg and the intrinsic clearance, rat liver microsomes was 604 mL/min/kg.

As for `N#Cc1c(N)nc(SCC(N)=O)c(C#N)c1-c1ccc(OCC2CC2)cc1`, the MDR1-MDCK efflux ratio was found to be 42.5 and the aqueous solubility was 0.52 µg/mL (≈ 1.37 µM).

For `Cc1cc(N(C)Cc2ccc(N)nc2)nc(-c2ccncc2)n1`, the MDR1-MDCK efflux ratio is 4.4; the intrinsic clearance, human liver microsomes is 44.2 mL/min/kg; the intrinsic clearance, rat liver microsomes amounted to 328 mL/min/kg; the aqueous solubility turned out to be 28.9 µg/mL (≈ 94.5 µM).

Turning to `COc1ccccc1-n1cc(CNC(=O)N(C)Cc2c(C)nn(C)c2C)cn1`, the MDR1-MDCK efflux ratio amounted to 54.7; the intrinsic clearance, human liver microsomes amounted to 75.5 mL/min/kg; the intrinsic clearance, rat liver microsomes was determined as 511 mL/min/kg.

For `Cn1cnc2ncn(Cc3nc(CCc4ccc(Cl)cc4)no3)c(=O)c21`, the MDR1-MDCK efflux ratio came out at 15.7; the intrinsic clearance, human liver microsomes worked out at 18 mL/min/kg; the intrinsic clearance, rat liver microsomes worked out at 214 mL/min/kg.

With `CN1CCC[C@H]1C(=O)N[C@@H](CO)Cc1ccccc1`, the MDR1-MDCK efflux ratio was found to be 2.77; the intrinsic clearance, human liver microsomes was 7.16 mL/min/kg; the intrinsic clearance, rat liver microsomes stood at 315 mL/min/kg.

Turning to `CC1(c2ccn[nH]2)CCN(Cc2ccco2)CC1`, the MDR1-MDCK efflux ratio came to 0.904; the intrinsic clearance, human liver microsomes is no more than 4.74 mL/min/kg; the intrinsic clearance, rat liver microsomes came out at 76.4 mL/min/kg; the aqueous solubility was 21 µg/mL (≈ 85.5 µM).

In the case of `Cc1csc(N(C(=O)c2cc3c(C)nn(C)c3s2)C2CC2)n1`, the MDR1-MDCK efflux ratio amounted to 0.642; the intrinsic clearance, human liver microsomes was determined as 121 mL/min/kg; the intrinsic clearance, rat liver microsomes was 255 mL/min/kg; the aqueous solubility was found to be 57.3 µg/mL (≈ 172 µM).

Regarding `CC(=O)N[C@H]1CC2(CCN(C(=O)COc3cc(C)c(Cl)c(C)c3)CC2)OC[C@]1(C)O`, the MDR1-MDCK efflux ratio turned out to be 42.6; the intrinsic clearance, human liver microsomes is 24.4 mL/min/kg; the intrinsic clearance, rat liver microsomes worked out at 166 mL/min/kg.

On to `O=C(Cn1nc2n(c1=O)-c1ccccc1C1=NCCN12)N1CCCc2ccccc21`, for which the MDR1-MDCK efflux ratio came to 7.27; the intrinsic clearance, human liver microsomes is 256 mL/min/kg; the intrinsic clearance, rat liver microsomes was determined as 1670 mL/min/kg; the aqueous solubility was determined as 1.63 µg/mL (≈ 4.07 µM).

In the case of `CN(CC1(O)CCCC1)c1ncccn1`, the MDR1-MDCK efflux ratio came out at 1.27; the intrinsic clearance, human liver microsomes is no more than 4.74 mL/min/kg; the intrinsic clearance, rat liver microsomes was determined as 132 mL/min/kg; the aqueous solubility is 32.6 µg/mL (≈ 157 µM).

As for `COc1cc([C@H](CC(=O)O)c2ccc(C)c(CN3C[C@@H](C)Oc4ccccc4S3(=O)=O)c2)cc2nnn(C)c12`, the MDR1-MDCK efflux ratio came to 99.5.

For `CCN(CC)CC(=O)N1CCC(n2c(=O)[nH]c3ccccc32)CC1`, the intrinsic clearance, human liver microsomes was no more than 4.74 mL/min/kg; the intrinsic clearance, rat liver microsomes came to 23.5 mL/min/kg; the aqueous solubility turned out to be 48.9 µg/mL (≈ 148 µM).

On to `c1cc2cc[nH]c2c(CC2CN(C3CCCC3)C2)n1`, for which the MDR1-MDCK efflux ratio amounted to 3.21; the intrinsic clearance, human liver microsomes is no more than 4.74 mL/min/kg; the intrinsic clearance, rat liver microsomes was 80.5 mL/min/kg; the aqueous solubility amounted to 18.6 µg/mL (≈ 72.7 µM).

In the case of `O=C(c1cccs1)N1C[C@@H]2CCCN(C(=O)c3cccs3)[C@@H]2C1`, the MDR1-MDCK efflux ratio worked out at 2.37; the intrinsic clearance, human liver microsomes worked out at 5.78 mL/min/kg; the intrinsic clearance, rat liver microsomes is 151 mL/min/kg; the aqueous solubility was found to be 63.1 µg/mL (≈ 182 µM).

For `CCn1nc(C2CCCC2)nc1-c1ccncc1`, the MDR1-MDCK efflux ratio turned out to be 0.716; the intrinsic clearance, human liver microsomes amounted to 24.6 mL/min/kg; the intrinsic clearance, rat liver microsomes stood at 370 mL/min/kg; the aqueous solubility was 27 µg/mL (≈ 111 µM).

For `Cc1ccc2nc(C)c(-c3nc(C)nn3CCO)cc2c1`, the MDR1-MDCK efflux ratio is 9.02; the intrinsic clearance, human liver microsomes was no more than 4.74 mL/min/kg; the intrinsic clearance, rat liver microsomes worked out at 19.3 mL/min/kg; the aqueous solubility was found to be 27 µg/mL (≈ 95.6 µM).

`O=C(Cc1csc(-c2ccc(F)cc2)n1)N1CCC(n2c(=O)[nH]c3ccccc32)CC1` gave an intrinsic clearance, human liver microsomes of 346 mL/min/kg and an intrinsic clearance, rat liver microsomes of 2820 mL/min/kg.

On to `Fc1ccc(F)c(CN2CCN(Cc3ccc4c(c3)OCO4)CC2)c1`, for which the MDR1-MDCK efflux ratio was found to be 0.645; the intrinsic clearance, human liver microsomes worked out at 105 mL/min/kg; the intrinsic clearance, rat liver microsomes amounted to 409 mL/min/kg; the aqueous solubility is 26.9 µg/mL (≈ 77.7 µM).

Take `CCCC(=O)Nc1ccc(-n2cccn2)nc1`: the MDR1-MDCK efflux ratio was 0.559; the intrinsic clearance, human liver microsomes was no more than 4.74 mL/min/kg; the intrinsic clearance, rat liver microsomes stood at 31.8 mL/min/kg; the aqueous solubility amounted to 45.2 µg/mL (≈ 196 µM).

Regarding `CN(C)c1ccnc(NC(=O)c2cnsn2)c1`, the intrinsic clearance, human liver microsomes stood at 163 mL/min/kg and the intrinsic clearance, rat liver microsomes was 280 mL/min/kg.

As for `Cc1nc(NCc2sccc2C)n(C)n1`, the MDR1-MDCK efflux ratio amounted to 0.795; the intrinsic clearance, human liver microsomes was no more than 4.74 mL/min/kg; the intrinsic clearance, rat liver microsomes was 21.6 mL/min/kg.

As to `Cc1nc(-c2cc(C)on2)n(CCc2ccccc2)n1`, the MDR1-MDCK efflux ratio turned out to be 0.6; the intrinsic clearance, human liver microsomes stood at 92.1 mL/min/kg; the intrinsic clearance, rat liver microsomes is 3950 mL/min/kg; the aqueous solubility is 21.5 µg/mL (≈ 80.2 µM).
